Test [1] concerns the target KRAS WT (Homo sapiens (Human), UniProt P01116). Nature of the test: KRAS WT Biochemical Assay, BODIPY-GDP Exchange TR-FRET (Example 502; 0.06 nM KRAS WT, 15 nM GDP, 300 nM SOS1, 120-minute incubation). The note with it: read-out: KRas HTRF IC50. In short, it runs like this: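 IC50 from a 4-parameter Hill fit of percent inhibition, itself the TR-FRET 520/490 nm ratio scaled between DMSO and a fully inhibiting control. Reaction: 300 nM SOS1 and 300 nM BODIPY-GDP added to preformed 0.06 nM KRAS WT/15 nM GDP/Tb-streptavidin complex; 120 min incubation; pH 7.5 HEPES, MgCl2, DTT.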
Background: Time-resolved FRET reads energy transfer from a long-lived donor to a nearby acceptor.

The target of test [2] is KRAS G12D (Homo sapiens (Human), UniProt P01116, G12D). Nature of the test: KRAS G12D LoEnz Biochemical Assay, BODIPY-GDP Exchange TR-FRET (SOS1-mediated nucleotide exchange). The note with it: read-out: KRas (G12D) GDP HTRF IC50.
Chain of KRAS G12D (P01116-2 other isoform, or with tags, fused parts or gaps G12D): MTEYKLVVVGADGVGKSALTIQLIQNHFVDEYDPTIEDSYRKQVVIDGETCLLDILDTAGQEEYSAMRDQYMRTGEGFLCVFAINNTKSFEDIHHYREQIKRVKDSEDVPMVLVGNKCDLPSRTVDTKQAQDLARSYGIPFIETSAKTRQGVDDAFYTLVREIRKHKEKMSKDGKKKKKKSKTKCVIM

The term IC50 denotes the concentration at which inhibition is half-maximal.

Chain of KRAS WT (P01116-2 other isoform, or with tags, fused parts or gaps): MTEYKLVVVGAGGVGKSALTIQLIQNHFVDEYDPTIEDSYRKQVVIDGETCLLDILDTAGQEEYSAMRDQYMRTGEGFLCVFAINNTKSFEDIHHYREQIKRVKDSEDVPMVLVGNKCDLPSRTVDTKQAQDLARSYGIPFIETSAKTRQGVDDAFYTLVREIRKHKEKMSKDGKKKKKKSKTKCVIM

As for `Cc1c(F)c(N)cc(-c2nc3c4c(nc(OC[C@H]5[C@H](C#N)CCN5C)nc4c2F)N2C[C@H]4CC[C@H](N4)[C@H]2[C@H](C)O3)c1C(F)(F)F` [Compound 161, (2R,3R)-2-((((5S,5aS,6S,9R)-2-(5-Amino-4° fluoro-3-methyl-2-(trifluoromethylo)henyl)-1-fluoro-5-methyl-5a,6,7,8,9,10-hexahydro-5H-4-oxa-3,10a,11,13,14-pentaaza-6,9-methanonaphtho[1,8-ab]heptalen-12-yl)oxy)methyl)-1-methylpyrrolidine-3-carbonitrile], the IC50 in test [1] stood at 1330 nM; in test [2], 7.61 nM.
In the case of `Cc1c(F)c(N)cc(-c2nc3c4c(nc(OC[C@H]5[C@@H](O)CCN5C)nc4c2F)N2C[C@H]4CC[C@H](N4)[C@H]2[C@H](C)O3)c1C(F)(F)F` [Compound 162, (2S,3S)-2-((((5S,5aS,6S,9R)-2-(5-Amino-4-fluoro-3-methyl-2-(trifluoromethyl)phenyl)-1-fluoro-5-methyl-5a,6,7,8,9,10-hexahydro-5H-4-oxa-3,10a,11,13,14-pentaaza-6,9-methanonaphtho[1,8-ab]heptalen-12-yl)oxy)methyl)-1-methylpyrrolidin-3-ol], the IC50 in test [1] stood at 41.3 nM; in test [2], 0.13 nM.
For `Cc1c(F)c(N)cc(-c2nc3c4c(nc(OCCCN5C[C@H]6C[C@@H]5CO6)nc4c2F)N2C[C@H]4CC[C@H](N4)[C@H]2[C@H](C)O3)c1C(F)(F)F` [Compound 163, 5-((5S,5aS,6S,9R)-12-(3-((1R,4R)-2-Oxa-5-azabicyclo[2.2.1]heptan-5-yl)propoxy)-1-fluoro-5-methyl-5a,6,7,8,9,10-hexahydro-5H-4-oxa-3,10a,11,13,14-pentaaza-6,9-methanonaphtho[1,8-ab]heptalen-2-yl)-2-fluoro-3-methyl-4-(trifluoromethyl)aniline], in that order: 19.6 nM and 0.11 nM.
As for `Cc1c(F)c(N)cc(-c2nc3c4c(nc(OCCCN5C[C@@H]6C[C@H]5CO6)nc4c2F)N2C[C@H]4CC[C@H](N4)[C@H]2[C@H](C)O3)c1C(F)(F)F` [Compound 164, 5-((5S,5aS,6S,9R)-12-(3-((1S,4S)-2-oxa-5-azabicyclo[2.2.1]heptan-5-yl)propoxy)-1-fluoro-5-methyl-5a,6,7,8,9,10-hexahydro-5H-4-oxa-3,10a,11,13,14-pentaaza-6,9-methanonaphtho[1,8-ab]heptalen-2-yl)-2-fluoro-3-methyl-4-(trifluoromethyl)aniline], the half-inhibitory concentration (IC50) amounted to 30.6 nM in test [1] and 0.15 nM in test [2].
Regarding `Cc1c(F)c(N)cc(-c2nc3c4c(nc(OCC5(CN6CCO[C@H](C)C6)CC5)nc4c2F)N2C[C@H]4CC[C@H](N4)[C@H]2[C@H](C)O3)c1C(F)(F)F` [Compound 168, 2-Fluoro-5-((5S,5aS,6S,9R)-1-fluoro-5-methyl-12-((1-(((R)-2-methylmorpholino)methyl)cyclopropyl)methoxy)-5a,6,7,8,9,10-hexahydro-5H-4-oxa-3,10a,11,13,14-pentaaza-6,9-methanonaphtho[1,8-ab]heptalen-2-yl)-3-methyl-4-(trifluoromethyl)aniline], the IC50 amounted to 1.68 nM in test [1] and 0.12 nM in test [2].
Turning to `Cc1c(F)c(N)cc(-c2nc3c4c(nc(OCC5(CN6C[C@@H]7C[C@H]6CO7)CC5)nc4c2F)N2C[C@H]4CC[C@H](N4)[C@H]2[C@H](C)O3)c1C(F)(F)F` [Compound 169, 5-((5S,5aS,6S,9R)-12-((1-(((1S,4S)-2-Oxa-5-azabicyclo[2.2.1]heptan-5-yl)methyl)cyclopropyl)methoxy)-1-fluoro-5-methyl-5a,6,7,8,9,10-hexahydro-5H-4-oxa-3,10a,11,13,14-pentaaza-6,9-methanonaphtho[1,8-ab]heptalene-2-yl)-2-fluoro-3-methyl-4-(trifluoromethyl)aniline], the concentration for half-maximal inhibition (IC50) stood at 2.31 nM in test [1] and 0.1 nM in test [2].
Take `Cc1c(F)c(N)cc(-c2nc3c4c(nc(OCC5(CN6C[C@H]7C[C@@H]6CO7)CC5)nc4c2F)N2C[C@H]4CC[C@H](N4)[C@H]2[C@H](C)O3)c1C(F)(F)F` [Compound 170, 5-((5S,5aS,6S,9R)-12-((1-(((1R,4R)-2-Oxa-5-azabicyclo[2.2.1]heptan-5-yl)methyl)cyclopropyl)methoxy)-1-fluoro-5-methyl-5a,6,7,8,9,10-hexahydro-5H-4-oxa-3,10a,11,13,14-pentaaza-6,9-methanonaphtho[1,8-ab]heptalene-2-yl)-2-fluoro-3-methyl-4-(trifluoromethyl)aniline]: the IC50 in test [1] amounted to 2.16 nM; in test [2] it was 0.09 nM.
The corresponding values for `Cc1c(F)c(N)cc(-c2nc3c4c(nc(OCC5(CN6CCO[C@H](CF)C6)CC5)nc4c2F)N2C[C@H]4CC[C@H](N4)[C@H]2[C@H](C)O3)c1C(F)(F)F` [Compound 171, 2-Fluoro-5-((5S,5aS,6S,9R)-1-fluoro-12-((1-(((S)-2-(fluoromethyl)morpholino)methyl)cyclopropyl)methoxy)-5-methyl-5a,6,7,8,9,10-hexahydro-5H-4-oxa-3,10a,11,13,14-pentaaza-6,9-methanonaphtho[1,8-ab]heptalen-2-yl)-3-methyl-4-(trifluoromethyl)aniline] are 13.7 nM and 0.253 nM.
For `Cc1c(F)c(N)cc(-c2nc3c4c(nc(OCC5(CN6CCO[C@@H](CF)C6)CC5)nc4c2F)N2C[C@H]4CC[C@H](N4)[C@H]2[C@H](C)O3)c1C(F)(F)F` [Compound 172, 2-Fluoro-5-((5S,5aS,6S,9R)-1-fluoro-12-((1-(((R)-2-(fluoromethyl)morpholino)methyl)cyclopropyl)methoxy)-5-methyl-5a,6,7,8,9,10-hexahydro-5H-4-oxa-3,10a,11,13,14-pentaaza-6,9-methanonaphtho[1,8-ab]heptalen-2-yl)-3-methyl-4-(trifluoromethyl)aniline], in that order: 11.1 nM and 0.24 nM.
For `Cc1c(F)c(N)cc(-c2nc3c4c(nc(OCC5(CN6CC(F)C6)CC5)nc4c2F)N2C[C@H]4CC[C@H](N4)[C@H]2[C@H](C)O3)c1C(F)(F)F` [Compound 173, 2-Fluoro-5-((5S,5aS,6S,9R)-1-fluoro-12-((1-((3-fluoroazetidin-1-yl)methyl)cyclopropyl)methoxy)-5-methyl-5a,6,7,8,9,10-hexahydro-5H-4-oxa-3,10a,11,13,14-pentaaza-6,9-methanonaphtho[1,8-ab]heptalene-2-yl)-3-methyl-4-(trifluoromethyl)aniline], the IC50 in test [1] was 5.95 nM; in test [2], 0.08 nM.
For `Cc1c(F)c(N)cc(-c2nc3c4c(nc(OCC5(CN6CC7(COC7)C6)CC5)nc4c2F)N2C[C@H]4CC[C@H](N4)[C@H]2[C@H](C)O3)c1C(F)(F)F` [Compound 174, 5-((5S,5aS,6S,9R)-12-((1-((2-Oxa-azaspiro[3.3]heptan-6-yl)methyl)cyclopropyl)methoxy)-1-fluoro-5-methyl-5a,6,7,8,9,10-hexahydro-5H-4-oxa-3,10a,11,13,14-pentaaza[6,9]methanonaphtho[1,8-ab]heptalene-2-yl)-2-fluoro-3-methyl-4-(trifluoromethyl)aniline], the IC50 was 3.04 nM in test [1] and 3.39 nM in test [2].

For the origin of these results see patent US20240025919A1, “AZA-TETRACYCLIC OXAZEPINE COMPOUNDS AND USES THEREOF” (Genentech, Inc., priority 2022, published 2024).
